{
  "source": "patent US20150258059A1",
  "about": "“ANTIMICROBIAL AND RADIOPROTECTIVE COMPOUNDS” (BioDiem, Ltd, priority 2001, published 2015)",
  "key": {"Candida albicans": {"test_system": "Candida albicans", "assay": "M38-P microdilution MIC/MFC", "assay_type": "cell-based", "details": "Table 16, 24 h, 35° C."}, "[1]": {"test_system": "C. guillermondii RMIT 176", "assay": "M38-P microdilution MIC/MFC", "assay_type": "cell-based", "details": "Table 16, 24 h, 35° C."}, "C. krusei RMIT 177": {"test_system": "C. krusei RMIT 177", "assay": "M38-P microdilution MIC/MFC", "assay_type": "cell-based", "details": "Table 16, 24 h, 35° C."}, "C. parapsilosis RMIT 178": {"test_system": "C. parapsilosis RMIT 178", "assay": "M38-P microdilution MIC/MFC", "assay_type": "cell-based", "details": "Table 16, 24 h, 35° C."}, "C. tropicalis RMIT 181": {"test_system": "C. tropicalis RMIT 181", "assay": "M38-P microdilution MIC/MFC", "assay_type": "cell-based", "details": "Table 16, 24 h, 35° C."}, "C. glabrate RMIT 157": {"test_system": "C. glabrate RMIT 157", "assay": "M38-P microdilution MIC/MFC", "assay_type": "cell-based", "details": "Table 16, 24 h, 35° C."}, "Cryptococcus neoformans": {"test_system": "Cryptococcus neoformans", "assay": "M38-P microdilution MIC/MFC", "assay_type": "cell-based", "details": "Table 16, 24 h, 35° C."}, "Aspergillus fumigatus": {"test_system": "Aspergillus fumigatus", "assay": "M38-P microdilution MIC/MFC", "assay_type": "cell-based", "details": "Table 16, 48 h, 35° C."}, "A. Niger": {"test_system": "A. Niger", "assay": "M38-P microdilution MIC/MFC", "assay_type": "cell-based", "details": "Table 16, 48 h, 35° C."}, "A. Flavus": {"test_system": "A. Flavus", "assay": "M38-P microdilution MIC/MFC", "assay_type": "cell-based", "details": "Table 16, 48 h, 35° C."}, "Fusarium graminearum": {"test_system": "Fusarium graminearum", "assay": "microbe, parasite or virus in culture", "assay_type": "cell-based", "details": "Table 16; M38-P; 48 h, 35° C."}, "F. chlamydosporum": {"test_system": "F. chlamydosporum", "assay": "M38-P microdilution MIC/MFC", "assay_type": "cell-based", "details": "Table 16, 48 h, 35° C."}, "Rhizopus stoloniefer": {"test_system": "Rhizopus stoloniefer", "assay": "M38-P microdilution MIC/MFC", "assay_type": "cell-based", "details": "Table 16, 48 h, 35° C."}, "R. oryzae": {"test_system": "R. oryzae", "assay": "M38-P microdilution MIC/MFC", "assay_type": "cell-based", "details": "Table 16, 48 h, 35° C."}, "Rhizomucor pusillus": {"test_system": "Rhizomucor pusillus", "assay": "M38-P microdilution MIC/MFC", "assay_type": "cell-based", "details": "Table 16, 48 h, 35° C."}, "Paecilomyces variotii": {"test_system": "Paecilomyces variotii", "assay": "M38-P microdilution MIC/MFC", "assay_type": "cell-based", "details": "Table 16, 48 h, 35° C."}, "Fonsecaea pedrosoi": {"test_system": "Fonsecaea pedrosoi", "assay": "M38-P microdilution MIC/MFC", "assay_type": "cell-based", "details": "Table 16, Dematiaceous fungi"}, "Phialophora verrucosa": {"test_system": "Phialophora verrucosa", "assay": "M38-P microdilution MIC/MFC", "assay_type": "cell-based", "details": "Table 16, Dematiaceous fungi"}, "Pseudoallescheria boydii": {"test_system": "Pseudoallescheria boydii", "assay": "M38-P microdilution MIC/MFC", "assay_type": "cell-based", "details": "Table 16, Dematiaceous fungi"}, "Salmonella intranasally": {"test_system": "Salmonella intranasally", "assay": "Anti-bacterial activity in vivo, infected mice", "details": "schedule +2, +3; 200 mg/kg intramuscularly"}, "[2]": {"test_system": "Corynebacterium paratuberculosis", "assay": "Anti-bacterial activity in vivo, infected mice", "description": "The therapeutic and prophylactic effect of the substances was determined in experiments in vivo on mice, infected intraperitoneally or intranasally with Corynebacterium paratuberculosis."}, "[3]": {"test_system": "skin wounds infected by Streptococcus and Staphylococcus", "assay": "Treatment of infected wounds, human volunteers", "assay_type": "in vivo", "details": "0.1% ointment for 3 days", "description": "Human volunteers suffering from skin wounds infected by Streptococcus and Staphylococcus were treated with 0.1% Compounds (1) and (2) in an ointment base of vaseline, sheep fat, and sulfoxide."}},
  "data": [
    {"compound": "C[C@@H]1[C@H](O)[C@@H](C)/C=C/C=C/C=C/C=C/C=C/C=C/C=C/[C@H](O[C@@H]2O[C@H](C)[C@@H](O)[C@H](N)[C@@H]2O)C[C@@H]2O[C@](O)(C[C@@H](O)C[C@@H](O)[C@H](O)CC[C@@H](O)C[C@@H](O)CC(=O)O[C@H]1C)C[C@H](O)[C@H]2C(=O)O", "note": "[Amphotericin B]", "values": [
      {"measurement": "MIC", "setting": "Candida albicans", "value": 0.251, "unit": "µg/mL"},
      {"measurement": "MMC", "setting": "Candida albicans", "value": 0.25, "unit": "µg/mL"},
      {"measurement": "MIC", "setting": "[1]", "value": 0.03, "unit": "µg/mL"},
      {"measurement": "MMC", "setting": "[1]", "value": 0.06, "unit": "µg/mL"},
      {"measurement": "MIC", "setting": "C. krusei RMIT 177", "value": 0.52, "unit": "µg/mL"},
      {"measurement": "MMC", "setting": "C. krusei RMIT 177", "value": 0.5, "unit": "µg/mL"},
      {"measurement": "MIC", "setting": "C. parapsilosis RMIT 178", "value": 0.253, "unit": "µg/mL"},
      {"measurement": "MMC", "setting": "C. parapsilosis RMIT 178", "value": 0.25, "unit": "µg/mL"},
      {"measurement": "MIC", "setting": "C. tropicalis RMIT 181", "value": 0.25, "unit": "µg/mL"},
      {"measurement": "MMC", "setting": "C. tropicalis RMIT 181", "value": 0.5, "unit": "µg/mL"},
      {"measurement": "MIC", "setting": "C. glabrate RMIT 157", "value": 0.5, "unit": "µg/mL"},
      {"measurement": "MMC", "setting": "C. glabrate RMIT 157", "value": 1, "unit": "µg/mL"},
      {"measurement": "MIC", "setting": "Cryptococcus neoformans", "value": 0.5, "unit": "µg/mL"},
      {"measurement": "MMC", "setting": "Aspergillus fumigatus", "value": 8, "unit": "µg/mL"},
      {"measurement": "MIC", "setting": "A. Niger", "value": 2, "unit": "µg/mL"},
      {"measurement": "MMC", "setting": "A. Niger", "value": 2, "unit": "µg/mL"},
      {"measurement": "MIC", "setting": "A. Flavus", "value": 8, "unit": "µg/mL"},
      {"measurement": "MMC", "setting": "A. Flavus", "value": 8, "unit": "µg/mL"},
      {"measurement": "MIC", "setting": "Fusarium graminearum", "value": 4, "unit": "µg/mL"},
      {"measurement": "MMC", "setting": "Fusarium graminearum", "value": 8, "unit": "µg/mL"},
      {"measurement": "MIC", "setting": "F. chlamydosporum", "value": 2, "unit": "µg/mL"},
      {"measurement": "MMC", "setting": "F. chlamydosporum", "value": 2, "unit": "µg/mL"},
      {"measurement": "MIC", "setting": "Rhizopus stoloniefer", "value": ">16", "unit": "µg/mL"},
      {"measurement": "MIC", "setting": "R. oryzae", "value": 4, "unit": "µg/mL"},
      {"measurement": "MMC", "setting": "R. oryzae", "value": 4, "unit": "µg/mL"},
      {"measurement": "MIC", "setting": "Rhizomucor pusillus", "value": 1, "unit": "µg/mL"},
      {"measurement": "MMC", "setting": "Rhizomucor pusillus", "value": 1, "unit": "µg/mL"},
      {"measurement": "MIC", "setting": "Paecilomyces variotii", "value": 1, "unit": "µg/mL"},
      {"measurement": "MMC", "setting": "Paecilomyces variotii", "value": 1, "unit": "µg/mL"},
      {"measurement": "MIC", "setting": "Fonsecaea pedrosoi", "value": 8, "unit": "µg/mL"},
      {"measurement": "MMC", "setting": "Fonsecaea pedrosoi", "value": 16, "unit": "µg/mL"},
      {"measurement": "MIC", "setting": "Phialophora verrucosa", "value": 2, "unit": "µg/mL"},
      {"measurement": "MMC", "setting": "Phialophora verrucosa", "value": 4, "unit": "µg/mL"},
      {"measurement": "MIC", "setting": "Pseudoallescheria boydii", "value": 4, "unit": "µg/mL"},
      {"measurement": "MMC", "setting": "Pseudoallescheria boydii", "value": 16, "unit": "µg/mL"}
    ]},
    {"compound": "O=[N+]([O-])/C=C/c1ccc2c(c1)OCO2", "note": "[Compound (2), 3,4-methylenedioxy-β-nitrostyrene]", "values": [
      {"measurement": "Cumulative mortality (test)", "setting": "Salmonella intranasally", "value": 15},
      {"measurement": "Incubation period days (test)", "setting": "Salmonella intranasally", "value": 1, "unit": "days"},
      {"measurement": "therapeutic and prophylactic activity", "setting": "[2]", "value": "showed therapeutic and prophylactic activity"},
      {"measurement": "clearing of infected wound", "setting": "[3]", "value": "cleared the wound completely of pus"},
      {"measurement": "solubility in organic solvents", "setting": "Solubility", "value": "soluble in acetone, alcohol, acetic acid and in a majority of organic solvents"},
      {"measurement": "solubility in water", "setting": "Solubility", "value": "non-soluble in water"}
    ]}
  ]
}
